As usually defined, the AC50 is the concentration giving half of the maximal activity seen.

Calls of active or inactive are those of the source.

Test [1] addresses T1, Rac GTPase-activating protein 1 (Homo sapiens, UniProt Q9H0H5).
T1 sequence (Q9H0H5 whole entry): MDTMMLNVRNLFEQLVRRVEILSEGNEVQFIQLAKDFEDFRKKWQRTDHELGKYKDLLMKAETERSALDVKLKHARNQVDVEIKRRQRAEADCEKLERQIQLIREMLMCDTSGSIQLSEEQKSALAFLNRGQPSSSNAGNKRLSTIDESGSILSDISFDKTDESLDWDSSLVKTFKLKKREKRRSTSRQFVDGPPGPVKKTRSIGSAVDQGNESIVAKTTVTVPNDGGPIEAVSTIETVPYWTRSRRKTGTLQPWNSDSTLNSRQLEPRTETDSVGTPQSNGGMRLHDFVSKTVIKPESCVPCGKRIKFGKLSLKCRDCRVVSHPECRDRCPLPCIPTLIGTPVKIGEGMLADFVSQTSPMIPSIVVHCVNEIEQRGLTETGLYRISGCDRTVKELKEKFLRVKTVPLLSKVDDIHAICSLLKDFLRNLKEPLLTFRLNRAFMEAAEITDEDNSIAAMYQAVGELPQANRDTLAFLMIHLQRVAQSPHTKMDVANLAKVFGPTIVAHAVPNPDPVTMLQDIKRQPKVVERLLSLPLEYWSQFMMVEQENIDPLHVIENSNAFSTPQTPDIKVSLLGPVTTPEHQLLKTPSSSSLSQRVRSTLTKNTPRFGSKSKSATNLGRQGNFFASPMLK
Nature of the test: blockers of MgcRacGAP-driven Rac1 GTP hydrolysis – biochemical, ADP Hunter fluorescence, primary and confirmatory, confirmation (AID 624330). It counts as functional.

The subject of test [2] is H9c2. Nature of the test: cells. It counts as functional, cell-based. Conditions: Rattus norvegicus, H9c2, Myocardium.
The target of test [3] is Heat shock protein HSP 90-alpha (Homo sapiens, UniProt P07900). In kind it is functional, organism-based.
Test [4] deals with Cytochrome P450 2C19 (Homo sapiens, UniProt P33261). Nature of the test: Cytochrome panel assay with activity outcomes. Panel member name: p450-cyp2c19 Compounds with AC50 equal or less than 10 uM are considered active. It counts as functional. Conditions: read-out: AC50.
The target in test [5] is T2, Cytochrome P450 1A2 (Homo sapiens, UniProt P05177).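 Further: PubChem cytochrome P450 panel assay, CYP1A2 panel member.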
T2 sequence (P05177 whole entry): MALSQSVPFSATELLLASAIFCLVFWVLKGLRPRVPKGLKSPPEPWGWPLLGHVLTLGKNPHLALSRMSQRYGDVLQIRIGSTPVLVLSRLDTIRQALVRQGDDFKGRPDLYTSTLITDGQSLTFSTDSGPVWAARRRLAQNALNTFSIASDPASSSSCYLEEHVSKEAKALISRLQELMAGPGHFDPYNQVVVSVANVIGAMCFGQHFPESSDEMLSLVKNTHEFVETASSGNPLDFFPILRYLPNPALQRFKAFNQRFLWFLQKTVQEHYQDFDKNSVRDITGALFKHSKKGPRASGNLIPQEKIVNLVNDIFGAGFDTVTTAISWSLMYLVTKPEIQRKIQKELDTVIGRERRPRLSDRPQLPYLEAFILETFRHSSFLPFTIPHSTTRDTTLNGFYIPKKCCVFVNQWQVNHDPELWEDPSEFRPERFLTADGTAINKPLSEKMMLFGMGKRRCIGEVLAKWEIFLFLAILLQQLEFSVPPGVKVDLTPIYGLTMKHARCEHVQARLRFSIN

In test [6] the target is Cytochrome P450 2C9 (Homo sapiens, UniProt P11712).
The target of test [7] is T3, Polyadenylate-binding protein 1 (Homo sapiens, UniProt P11940). The test can be described thus: MLLE binding blockers, Cy5 peptide tracer – biochemical, fluorescence polarization, Cy5-PAM2 peptide, secondary, miRNA deadenylation inhibitor project, dose response (AID 602260). In kind it is functional. Conditions: read-out: IC50_Mean. In general terms: Fluorescence polarisation rises when a labelled molecule tumbles more slowly, as on binding a larger partner.

Test [8] addresses T3, Polyadenylate-binding protein 1. Nature of the test: MLLE domain peptide-binding blockers, IC50 – biochemical, fluorescence polarization, FITC-PAM2 peptide, dose response (AID 602259). In kind it is functional. Conditions: read-out: IC50_Mean.
Test [9] concerns the target T4, RNA-binding protein pos-1 (Caenorhabditis elegans, UniProt G5EF15).
T4 sequence (G5EF15 whole entry): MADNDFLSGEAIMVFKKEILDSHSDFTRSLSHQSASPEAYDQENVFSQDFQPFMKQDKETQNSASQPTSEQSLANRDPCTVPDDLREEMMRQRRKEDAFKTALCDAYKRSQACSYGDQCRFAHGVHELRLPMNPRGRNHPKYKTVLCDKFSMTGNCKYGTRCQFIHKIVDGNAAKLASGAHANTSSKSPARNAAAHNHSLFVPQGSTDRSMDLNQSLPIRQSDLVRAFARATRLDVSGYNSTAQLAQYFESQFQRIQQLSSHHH
The test can be described thus: disruptors of C. elegans POS-1 RNA interaction – biochemical, fluorescence polarization, dose response (AID 1964).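 Further: purified POS-1 fused to maltose binding protein made in E. coli; potency of compounds blocking POS-1 binding to fluorescent RNA.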

The target of test [10] is T5, Zinc finger protein mex-5 (Caenorhabditis elegans, UniProt Q9XUB2).
T5 sequence (Q9XUB2 whole entry): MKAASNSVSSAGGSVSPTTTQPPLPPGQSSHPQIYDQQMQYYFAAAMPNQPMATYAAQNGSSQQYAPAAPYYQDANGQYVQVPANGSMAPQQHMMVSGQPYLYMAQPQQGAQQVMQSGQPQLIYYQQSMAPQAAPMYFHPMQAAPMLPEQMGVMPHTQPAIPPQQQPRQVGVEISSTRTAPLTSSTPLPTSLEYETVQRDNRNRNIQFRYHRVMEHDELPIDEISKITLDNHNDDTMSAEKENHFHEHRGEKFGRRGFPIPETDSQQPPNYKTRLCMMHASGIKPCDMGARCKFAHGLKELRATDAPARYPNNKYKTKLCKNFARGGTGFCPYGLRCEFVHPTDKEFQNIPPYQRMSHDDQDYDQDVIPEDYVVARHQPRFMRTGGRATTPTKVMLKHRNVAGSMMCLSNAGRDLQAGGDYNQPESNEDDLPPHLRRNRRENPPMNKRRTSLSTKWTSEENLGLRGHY
Nature of the test: potency of MEX-5 RNA-binding blockers – biochemical, C. elegans, fluorescence polarization, dose response (AID 1960).

Test [11] deals with Nonstructural protein 1 (Influenza A virus, UniProt Q194T2). It counts as functional, Influenza A virus (A/California/07/2009(H1N1)).
Test [12] has as its target T6, Corticotropin-releasing factor receptor 2/Corticotropin-releasing factor-binding protein (Homo sapiens, UniProt P24387+Q13324).
T6 sequence (Q13324 whole entry): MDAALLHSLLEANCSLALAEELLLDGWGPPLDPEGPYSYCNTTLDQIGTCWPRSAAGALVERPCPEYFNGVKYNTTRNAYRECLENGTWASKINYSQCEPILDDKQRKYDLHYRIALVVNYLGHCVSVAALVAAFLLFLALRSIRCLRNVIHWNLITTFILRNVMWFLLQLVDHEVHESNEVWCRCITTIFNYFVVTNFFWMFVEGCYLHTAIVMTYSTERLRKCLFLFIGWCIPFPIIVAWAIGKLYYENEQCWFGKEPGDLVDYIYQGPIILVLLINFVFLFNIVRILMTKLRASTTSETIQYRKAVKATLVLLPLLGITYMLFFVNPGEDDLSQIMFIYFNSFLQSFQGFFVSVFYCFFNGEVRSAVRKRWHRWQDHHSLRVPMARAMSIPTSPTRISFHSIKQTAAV
T6 sequence (P24387 whole entry): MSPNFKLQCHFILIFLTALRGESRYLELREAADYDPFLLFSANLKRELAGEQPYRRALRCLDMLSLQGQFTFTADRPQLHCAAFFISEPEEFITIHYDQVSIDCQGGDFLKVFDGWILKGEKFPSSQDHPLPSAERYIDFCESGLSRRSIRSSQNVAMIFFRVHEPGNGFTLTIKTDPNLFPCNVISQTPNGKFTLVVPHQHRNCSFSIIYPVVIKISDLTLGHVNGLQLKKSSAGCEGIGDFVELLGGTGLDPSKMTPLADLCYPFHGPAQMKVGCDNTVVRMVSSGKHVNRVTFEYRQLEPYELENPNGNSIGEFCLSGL
Nature of the test: Dose Response confirmation of uHTS hits for small molecule antagonists of the CRF-binding protein and CRF-R2 receptor complex. It counts as functional. The note with it: read-out: IC50_Mean.

In test [13] the target is T6, Corticotropin-releasing factor receptor 2/Corticotropin-releasing factor-binding protein. Nature of the test: activators of CRF receptor 2 with binding protein – uHTS hits, confirmation (AID 602473). It counts as functional. The note with it: read-out: EC50_Mean.

Nonstructural protein 1, sequence (Q194T2 whole entry): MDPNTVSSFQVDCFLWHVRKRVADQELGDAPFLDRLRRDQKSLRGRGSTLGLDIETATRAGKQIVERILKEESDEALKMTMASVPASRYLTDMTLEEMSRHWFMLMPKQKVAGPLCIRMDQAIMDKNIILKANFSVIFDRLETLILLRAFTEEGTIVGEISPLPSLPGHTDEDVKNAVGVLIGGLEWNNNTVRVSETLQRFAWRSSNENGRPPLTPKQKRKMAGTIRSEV
T3 sequence (P11940 whole entry): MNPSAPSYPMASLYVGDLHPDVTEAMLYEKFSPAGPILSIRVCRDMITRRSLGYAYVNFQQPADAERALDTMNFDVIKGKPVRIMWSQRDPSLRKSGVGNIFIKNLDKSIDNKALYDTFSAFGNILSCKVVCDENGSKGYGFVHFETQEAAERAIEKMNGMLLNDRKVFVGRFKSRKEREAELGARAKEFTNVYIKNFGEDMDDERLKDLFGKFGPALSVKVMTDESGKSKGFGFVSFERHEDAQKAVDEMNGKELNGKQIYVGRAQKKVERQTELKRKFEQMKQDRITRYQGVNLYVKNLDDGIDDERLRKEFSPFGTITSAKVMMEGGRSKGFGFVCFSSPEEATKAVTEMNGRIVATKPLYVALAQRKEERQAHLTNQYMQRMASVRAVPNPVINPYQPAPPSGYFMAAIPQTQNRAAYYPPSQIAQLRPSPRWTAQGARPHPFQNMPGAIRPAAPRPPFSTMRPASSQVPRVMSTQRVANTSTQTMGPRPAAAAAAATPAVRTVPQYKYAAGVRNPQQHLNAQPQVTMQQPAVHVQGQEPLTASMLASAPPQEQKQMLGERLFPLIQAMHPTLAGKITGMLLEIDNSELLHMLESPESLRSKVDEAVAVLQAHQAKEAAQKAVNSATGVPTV
Cytochrome P450 2C9, sequence (P11712 whole entry): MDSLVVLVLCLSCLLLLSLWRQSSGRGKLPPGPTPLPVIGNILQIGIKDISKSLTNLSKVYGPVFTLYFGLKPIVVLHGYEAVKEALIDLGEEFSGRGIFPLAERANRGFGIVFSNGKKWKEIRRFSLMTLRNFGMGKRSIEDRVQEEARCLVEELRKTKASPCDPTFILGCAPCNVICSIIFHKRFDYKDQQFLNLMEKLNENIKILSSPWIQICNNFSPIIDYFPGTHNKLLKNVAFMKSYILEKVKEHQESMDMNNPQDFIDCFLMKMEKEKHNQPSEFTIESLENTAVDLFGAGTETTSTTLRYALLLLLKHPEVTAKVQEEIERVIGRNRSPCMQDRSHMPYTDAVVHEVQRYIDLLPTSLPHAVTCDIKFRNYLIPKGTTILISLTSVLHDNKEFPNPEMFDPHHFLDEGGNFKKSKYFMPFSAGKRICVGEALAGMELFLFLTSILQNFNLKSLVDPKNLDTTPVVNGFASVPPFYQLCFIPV
Cytochrome P450 2C19, sequence (P33261 whole entry): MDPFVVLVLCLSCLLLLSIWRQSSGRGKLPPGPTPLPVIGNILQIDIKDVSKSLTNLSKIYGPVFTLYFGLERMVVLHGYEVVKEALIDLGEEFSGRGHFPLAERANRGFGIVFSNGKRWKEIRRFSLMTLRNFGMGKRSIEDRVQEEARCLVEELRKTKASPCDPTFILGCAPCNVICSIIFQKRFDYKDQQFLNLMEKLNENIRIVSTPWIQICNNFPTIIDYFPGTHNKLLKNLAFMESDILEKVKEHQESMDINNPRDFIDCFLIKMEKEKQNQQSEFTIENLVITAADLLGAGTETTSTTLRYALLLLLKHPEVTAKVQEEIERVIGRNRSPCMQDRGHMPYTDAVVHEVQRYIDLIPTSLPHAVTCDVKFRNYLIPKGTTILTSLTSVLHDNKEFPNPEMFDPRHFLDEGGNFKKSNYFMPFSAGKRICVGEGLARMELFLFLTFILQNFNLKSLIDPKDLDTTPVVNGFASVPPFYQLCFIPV

Regarding `Oc1ccc(N2CCN(c3ccnc4cc(Cl)ccc34)CC2)cc1`, the IC50 in test [1] was 48.3 µM (active). `CCOc1cc(/C=C/c2nc(O)c3ccccc3n2)ccc1O`: the IC50 in test [2] is 9.17 µM (active). On the same count and under the same terms, the value for `CCOC(=O)c1ccccc1OCc1cc(/C=N/NC(=O)c2cccnc2)ccc1OC` was > 79 µM (inactive).

As to `O=S(=O)(/C=C/c1ccccc1)NC1CCCCCCC1`, the AC50 in test [3] was 24.7 µM (active). `CCOC(=O)c1ccc(-c2ccc(/C=C(\C#N)C(=O)NCC3CCCO3)o2)cc1` (stereo not drawn): the results for the AC50 in test [4], in test [5] and in [6] were 2.51 µM (inconclusive), 4.47 µM (inconclusive) and 5.62 µM (inconclusive), respectively. The IC50 in test [2] was > 79 µM (inactive). `CCCCn1c(NC(=S)Nc2ccccc2)nc2ccccc21`: the IC50 in [7] and in [8] was > 66 µM (inactive) throughout. Regarding `CN(CC(=O)NCc1ccccn1)S(=O)(=O)c1ccc(Br)cc1`, the EC50 in test [9] and in test [10] was > 300 µM (not active) in each case. `COc1ccc(N2CCN(c3c(S(=O)(=O)c4ccccc4)cnc4ccc(OC)cc34)CC2)cc1`: the AC50 in test [3] is 2.76 µM (active). Take `COc1ccc(CCCNC(=O)C2(C)Cc3c(-c4ccc(NC(C)=O)cc4)ccnc3O2)cc1` (stereo not drawn): the IC50 in test [2] was > 79 µM (inactive). Take `O=C(NCc1ccncc1)C(=O)N/N=C/c1ccccn1`: the EC50 in test [9] was 86.1 µM (active); in test [10], 24.2 µM (active). For the molecule `CCOC(=O)c1ccccc1NC(=O)c1ccc2c(=O)n3c(nc2c1)CCCCC3`, in test [2], the IC50 is > 79 µM (inactive). Take `COc1cc(/C=C/C(=O)OC(C)C(=O)Nc2c(C)n(C)n(-c3ccccc3)c2=O)ccc1O` (stereo not drawn): in test [1], the IC50 is 61.4 µM (active). As to `O=C(CCCSc1nc(O)c2c3c(sc2n1)CCC3)NCCCO`, the IC50 in test [2] was 19.9 µM (active). With `CC(=O)Nc1cccc(-c2cc(NC(C)=O)c3ncc(-c4cccc(C(C)=O)c4)n3c2)c1`, the IC50 in [2] was > 79 µM (inactive). In the case of `CCS(=O)(=O)c1ccc2oc(=O)c(/C=C(\O)c3ccc(Cl)cc3)nc2c1`, the IC50 in [1] was 99.7 µM (active). Still for that read-out and setting: the same measure for `COc1cc(CNC2CCCCC2OC)cc(OC)c1` (stereo not drawn): 152 µM (active). As for `Oc1ccc(-c2c(-c3ccsc3)sc3ccccc23)cc1`, in test [3], the AC50 is 3.3 µM (active). Turning to `COc1cc(-c2cc(NC(C)=O)c3ncc(-c4cc(OC)c(OC)c(OC)c4)n3c2)cc(OC)c1OC`, the IC50 in test [2] was > 79 µM (inactive). In the case of `COc1ccc2cc3cc(C(=O)N4CCN(Cc5ccc6c(c5)OCO6)CC4)oc3nc2c1`, the IC50 in test [11] was > 100 µM (active). As for `COc1cccc(OCCn2cc(C=O)c3ccccc32)c1`, the EC50 in test [9] and in [10] was > 300 µM (not active) throughout.

On to `CN(CC(=O)Nc1cccc(F)c1)C(=O)CCCc1nc(O)c2ccccc2n1`, for which, in [2], the IC50 was > 79 µM (inactive).

For the molecule `COc1cccc(CNC(=O)CSc2ccc(-c3ccccn3)nn2)c1`, the IC50 in test [11] is 20.6 µM (active).

With `CCOc1cc(/C=N/NC(=O)C(C)Sc2ccccn2)ccc1O` (stereo not drawn), the IC50 in test [1] was 39.8 µM (active). For the molecule `O=C1CSC(Nc2ccc(O)cc2)=N1`, the IC50 in test [1] is 35.9 µM (active). `COc1ccc(C(=O)NNC(=O)c2ccc3ccccc3n2)cc1`: the IC50 in test [2] is > 79 µM (inactive).

Turning to `COCCN1CCC(CNCc2c[nH]nc2-c2ccc(C)c(C)c2)C1` (stereo not drawn), the figures for the EC50 in test [9] and in [10] were > 300 µM (not active) and > 300 µM (inconclusive), respectively. For the molecule `Cc1c(N=NC2=C(O)CCCC2=O)c(=O)n(-c2ccccc2)n1C`, the IC50 in [11] is 2.9 µM (active). Same read-out and setting: the same measure for `O=[N+]([O-])c1ccc(N/N=C2\CC3CC=CC23)c([N+](=O)[O-])c1` (stereo not drawn): 35.3 µM (active). On to `CCOC(=O)c1sc(-c2ccc(C(F)(F)F)cc2)nc1O`, for which the AC50 in test [3] is 3.14 µM (active). In addition, the IC50 in [12] was > 47.1 µM (inactive). Moreover, in test [13], the EC50 was 11.9 µM (active).

`Oc1ccc(-c2csc(Nc3cccnc3)n2)cc1`: in [1], the IC50 was 18.2 µM (active). Consider `O=C1N=C(N2CCCCC2)S/C1=C/C1=Cc2ccccc2OC1`, for which the EC50 in test [9] and in test [10] was > 300 µM (not active) throughout. For the molecule `COc1cc([C@H](Cc2ccccc2)NC(C)=O)oc(=O)c1`, the EC50 in test [9] is 38.7 µM (active); in test [10] it was 27.9 µM (active). For the molecule `CS(=O)(=O)N(Cc1ccc(C(=O)NCCSc2ccccn2)cc1)c1ccccc1`, the IC50 in test [2] was 17.4 µM (active). As to `CN(C)c1ccc(/C=N/N(CCC(=O)NC(C)(C)C)C2=NS(=O)(=O)c3ccccc32)cc1`, the EC50 in test [9] is > 300 µM (not active). For `COC(=O)c1ccc(-n2c(C)cc(/C=N/Nc3nc(C)cc(O)n3)c2C)cc1`, the EC50 in test [9] and in test [10] was > 300 µM (not active) each time.

For the origin of these results see ChEMBL document CHEMBL1201862, “PubChem BioAssay data set” (2004).
